Laboratory results reported in patent US20070027143A1, “Novel substituted 2,3-benzodiazepine derivatives” (priority 2003, published 2007).
Where a name gives a salt, the structure may show the parent alone. Marks after values point to notes of the source that are not given here.

Legend:
CD1 mice [1] = assay: Anticonvulsant activity, strychnine induced seizures; format: in vivo; conditions: Mus musculus; po.; read-out: Strychnine ED50
Procedure: (§1) The anti-seizure activity of some of the compounds of the present invention was measured using the electroshock test (J. Pharmacol. Exp. Ther. 106:319 (1952)) and the results are shown in Table 3. The spasmolytic activity of the compounds of the present invention was investigated by using e.g., pentetrazole (J. Pharmacol. Exp. Ther. 108:168 (1953)), strychnine (J. Pharmacol. Exp. Ther. 129:75 (1960)), bemegrid, nicotine, bicuculline, 4-aminopyridine and mercapto-propionic acid for inducing the clonic-tonic seizures and lethality. The investigated compounds were administered orally in three doses using 10 male CD1 mice/dose, usually 60 min before the induction of seizures.

CD1 mice [2] = assay: Anticonvulsant activity, bicuculline induced seizures; format: in vivo; conditions: Mus musculus; po.; read-out: Bicuculline ED50
Procedure: as §1

CD1 mice [3] = assay: Muscle relaxant activity, inclined screen test; format: in vivo; conditions: Mus musculus, ip
CD1 mice [4] = assay: Anticonvulsant activity, pentetrazole induced seizures; format: in vivo; conditions: Mus musculus; po.; read-out: Pentetrazol ED50
Procedure: as §1

CD1 mice [5] = assay: Muscle relaxant activity, rotarod test; format: in vivo; conditions: Mus musculus, ip
CD1 mice [6] = assay: Anticonvulsant activity, 4-aminopyridine induced seizures; format: in vivo; conditions: Mus musculus; po.; read-out: 4-AP ED50
Procedure: as §1

CD1 mice [7] = assay: Anticonvulsant activity, maximal electroshock seizure (MES) test; format: in vivo; conditions: Mus musculus, po.
Procedure: as §1

CD1 mice [8] = assay: Anticonvulsant activity, 3-mercapto-propionic acid induced seizures; format: in vivo; conditions: Mus musculus; po.; read-out: 3-MPA ED50
Procedure: as §1

CD1 mice [9] = assay: Anticonvulsant activity, bemegride induced seizures; format: in vivo; conditions: Mus musculus; po.; read-out: Bemegride ED50
Procedure: as §1

AMPA/kainate receptors = assay: Inhibition of AMPA induced whole-cell current in acutely isolated cerebellar Purkinje cells (patch clamp); format: cell-based; conditions: 5 μM AMPA, read-out: Inhibition of the ion-currents caused by 5 μM AMPA, IC50
Procedure: (§2) In the first model the spreading depression caused by glutamate agonists (i.e., AMPA or kainate) was studied, while in the second one the transmembrane ion-current induced by the activation of the AMPA/kainate receptors was measured directly.
The activity of the compounds of the present invention was studied on acutely isolated cerebellar Purkinje cells by measuring the whole-cell current induced by 5 μM AMPA according for example to the method described by Bleakman et al (Neuropharmacology 12:1689 (1996)).

CD1 mice [10] = assay: Anticonvulsant activity, nicotine induced seizures; format: in vivo; conditions: Mus musculus; po.
Procedure: as §1

AMPA receptors = assay: Inhibition of AMPA induced spreading depression in isolated chicken retina; format: cell-based; conditions: AMPA (5 μM)
Procedure: as §2
Inhibition of AMPA Induced “Spreading Depression” in Isolated Chicken Retina—
The AMPA antagonistic effect of the compounds of formula (I) or (II) was studied in the in vitro “spreading depression” model (Sheardown Brain Res. 607:189 (1993)). The AMPA antagonists prolong the latency of the development of the “spreading depression” caused by AMPA (5 μM).

rats = assay: Inhibition of focal ischemia, middle cerebral artery occlusion (MCAO) test; format: in vivo
Procedure: The focal anti-ischemic activity of the compounds of formula (I) or (II) of the present invention was measured by the “middle cerebral artery occlusion” (MCAO) test (Bartus Stroke 11:2265 (1994) and Sydserff et al, Brit. J. Pharmacol. 114:1631 (1995)). […] After a histological process (TTC staining) 24 h later, the infarcted area was determined by a computer assisted scanner program and was compared to the results obtained in a control group treated with the vehicle.

[11] = 1 h, 60 min before induction, read-out: MES (MES 60′) ED50

## C[C@@H]1Cc2cc3c(cc2C(c2ccc(N)cc2)=NN1c1nncs1)OCO3 [Example 84, (R)-5-(4-Aminophenyl)-8-methyl-7-(1,3,4-thiadiazol-2-yl)-8,9-dihydro-7H-1,3-dioxolo-[4,5-h][2,3]benzodiazepine]
CD1 mice [1]
  ED50: 18.2 mg/kg
CD1 mice [2]
  ED50: 17 mg/kg
CD1 mice [3]
  ED50: 12.8 mg/kg
CD1 mice [4]
  ED50: 17.1 mg/kg
CD1 mice [5]
  ED50: 1.4 mg/kg
other
  melting point: 219 to 220 °C
CD1 mice [6]
  ED50: 16.6 mg/kg
CD1 mice [7]; 0.5 h, 30′, read-out: MES 30′ ED50
  ED50: 10 to 15 mg/kg
CD1 mice [7]; [11]
  ED50: 12.5 mg/kg
CD1 mice [8]
  ED50: 6.8 mg/kg
CD1 mice [9]
  ED50: 16.7 mg/kg
AMPA/kainate receptors
  IC50: 0.09 µM
CD1 mice [10]
  ED50: 77.2 mg/kg
AMPA receptors
  IC50: 0.85 µM

## CC1=NN=C(c2ccc(N)cc2)c2cc3c(cc2C1)OCO3 [GYKI 52466 HCl, 5-(4-aminophenyl)-8-methyl-9H-1,3-dioxolo[4,5-h][2,3]benzodiazepine, reference compound]
rats; 2 mg/kg iv. 6x in every 30 min, first treatment 120 min after occlusion
  Decrease of the infracted area in % compared to that of the control: 39* %
rats; 5 mg/kg iv. 6x in every 30 min, first treatment 30 min after occlusion
  Decrease of the infracted area in % compared to that of the control: 34* %
rats; 5 mg/kg iv. 6x in every 30 min, first treatment 120 min after occlusion
  Decrease of the infracted area in % compared to that of the control: 47** %

## CCc1nnc(N2N=C(c3ccc(N)cc3)c3cc4c(cc3C[C@H]2C)OCO4)s1 [Example 89, (R)-5-(4-Aminophenyl)-7-(5-ethyl-1,3,4-thiadiazol-2-yl)-8-methyl-8,9-dihydro-7H-1,3-dioxolo-[4,5-h][2,3]benzodiazepine]
CD1 mice [1]
  ED50: 15.7 mg/kg
CD1 mice [2]
  ED50: 17.1 mg/kg
CD1 mice [3]
  ED50: 4.3 mg/kg
CD1 mice [4]
  ED50: 11.5 mg/kg
CD1 mice [5]
  ED50: 1.7 mg/kg
other
  melting point: 142 to 144 °C
CD1 mice [6]
  ED50: 14.3 mg/kg
CD1 mice [7]; [11]
  ED50: 10.5 mg/kg
CD1 mice [8]
  ED50: > 50 mg/kg
CD1 mice [9]
  ED50: 11.2 mg/kg
CD1 mice [10]
  ED50: 45.9 mg/kg

## Cc1nnc(N2N=C(c3ccc(N)cc3)c3cc4c(cc3C[C@H]2C)OCO4)o1 [Example 102, (R)-5-(4-Aminophenyl)-8-methyl-7-(5-methyl-1,3,4-oxadiazol-2-yl)-8,9-dihydro-7H-1,3-dioxolo-[4,5-h][2,3]benzodiazepine]
CD1 mice [1]
  ED50: 26.7 mg/kg
CD1 mice [2]
  ED50: 25.8 mg/kg
CD1 mice [3]
  ED50: 14.8 mg/kg
CD1 mice [4]
  ED50: 35.7 mg/kg
CD1 mice [5]
  ED50: 2.9 mg/kg
other
  melting point: 145 to 149 °C
CD1 mice [6]
  ED50: 20.4 mg/kg
CD1 mice [7]; [11]
  ED50: 13.9 mg/kg
CD1 mice [8]
  ED50: > 50 mg/kg
CD1 mice [9]
  ED50: 27.9 mg/kg
CD1 mice [10]
  ED50: 31.7 mg/kg

## Cc1cc(C2=NN(c3nnc(C4CC4)s3)[C@H](C)Cc3cc4c(cc32)OCO4)ccc1[N+](=O)[O-] [Example 139, (R)-7-(5-Cyclopropyl-1,3,4-thiadiazol-2-yl)-8-methyl-5-(3-methyl-4-nitrophenyl)-8,9-dihydro-7H-1,3-dioxolo[4,5-h][2,3]benzodiazepine]
other
  melting point: 126 to 130 °C

## CC(=O)Nc1ccc(C2=NN(c3nc(C)cs3)C(C)Cc3cc4c(cc32)OCO4)cc1 (racemic) (hydrate or solvate) [Example 121, (±)-5-(4-Acetylaminophenyl)-8-methyl-7-(4-methyl-thiazol-2-yl)-8,9-dihydro-7H-1,3-dioxolo-[4,5-h][2,3]benzodiazepine]
other
  melting point: 236 to 238 °C

## CC(=O)Nc1ccc(C2=NN(c3nccs3)[C@@H](C)Cc3cc4c(cc32)OCO4)cc1 [Example 124, (S)-5-(4-Acetylaminophenyl)-8-methyl-7-(2-thiazolyl)-8,9-dihydro-7H-1,3-dioxolo-[4,5-h][2,3]benzodiazepine]
other
  melting point: 124 to 128 °C

## CC(=O)OCc1nnc(N2N=C(c3ccc([N+](=O)[O-])c(C)c3)c3cc4c(cc3C[C@H]2C)OCO4)s1 [Example 141, (R)-7-(5-Acetoxymethyl-1,3,4-thiadiazol-2-yl)-8-methyl-5-(3-methyl-4-nitrophenyl)-8,9-dihydro-7H-1,3-dioxolo[4,5-h][2,3]benzodiazepine]
other
  melting point: 110 to 115 °C

## CC1Cc2cc3c(cc2C(c2ccc(N)cc2)=NN1c1nnc(C(F)(F)F)s1)OCO3 (racemic) [Example 90, (±)-5-(4-Aminophenyl)-8-methyl-7-(5-trifluoromethyl-1,3,4-thiadiazol-2-yl)-8,9-dihydro-7H-1,3-dioxolo-[4,5-h][2,3]benzodiazepine]
other
  melting point: 216 to 218 °C

## CC(=O)Nc1ccc(C2=NN(c3ncc(C)s3)C(C)Cc3cc4c(cc32)OCO4)cc1 (racemic) [Example 120, (±)-5-(4-Acetylaminophenyl)-8-methyl-7-(5-methyl-thiazol-2-yl)-8,9-dihydro-7H-1,3-dioxolo-[4,5-h][2,3]benzodiazepine]
other
  melting point: 176 to 179 °C

## CCOC(=O)c1nnc(N2N=C(c3ccc([N+](=O)[O-])c(C)c3)c3cc4c(cc3C[C@H]2C)OCO4)s1 [Example 144, (R)-7-(5-Ethoxycarbonyl-1,3,4-thiadiazol-2-yl)-8-methyl-5-(3-methyl-4-nitrophenyl)-8,9-dihydro-7H-1,3-dioxolo[4,5-h][2,3]benzodiazepine]
other
  melting point: 115 to 118 °C

## Cc1nc(N2N=C(c3ccc(N)cc3)c3cc4c(cc3CC2C)OCO4)no1 (racemic) [Example 109, (±)-5-(4-Aminophenyl)-8-methyl-7-(5-methyl-1,2,4-oxadiazol-3-yl)-8,9-dihydro-7H-1,3-dioxolo-[4,5-h][2,3]benzodiazepine]
other
  melting point: 130 to 135 °C

## CC1SC(N2N=C(c3ccc(N)cc3)c3cc4c(cc3CC2C)OCO4)=NC1=O (racemic) [Example 72, (±)-5-(4-Aminophenyl)-7-(4,5-dihydro-5-methyl-4-oxo-thiazol-2-yl)-8-methyl-8,9-dihydro-7H-1,3-dioxolo-[4,5-h][2,3]benzodiazepine]
other
  melting point: 200 to 204 °C

## CC1Cc2cc3c(cc2C(c2ccc(N)cc2)=NN1C1N=CNN1)OCO3 (racemic) [Example 113, (±)-5-(4-Aminophenyl)-8-methyl-7-(1H(2H)1,2,4-triazol-3-yl)-8,9-dihydro-7H-1,3-dioxolo-[4,5-h][2,3]benzodiazepine]
other
  melting point: 178 to 181 °C

## CCc1nnc(N2N=C(c3ccc([N+](=O)[O-])cc3)c3cc4c(cc3CC2C)OCO4)s1 (racemic) [Example 30, (±)-7-(5-Ethyl-1,3,4-thiadiazol-2-yl)-8-methyl-5-(4-nitrophenyl) 8,9-dihydro-7H-1,3-dioxolo[4,5-h][2,3]benzodiazepine]
other
  melting point: 163 to 164 °C

## CC1Cc2cc3c(cc2C(c2ccc(N)cc2)=NN1c1nnc(-c2ccccc2)s1)OCO3 (racemic) (hydrate or solvate) [Example 91, (±)-5-(4-Aminophenyl)-7-(5-phenyl-1,3,4-thiadiazol-2-yl)-8-methyl-8,9-dihydro-7H-1,3-dioxolo-[4,5-h][2,3]benzodiazepine]
other
  melting point: 228 to 230 °C
